In patent US9302999B2, “Substituted triazoles as herbicides” (E. I. DU PONT DE NEMOURS AND COMPANY, priority 2012, dated 2016):

Tests used:
Barnyardgrass = experiment: Test C postemergence: barnyardgrass; format: in vivo, Echinochloa crus-galli
Source text: (§1) At the same time, plants selected from these crop and weed species and also barley (winter barley, Hordeum vulgare), canarygrass (Phalaris minor), chickweed (common chickweed, Stellaria media) windgrass (Apera spica-venti) and deadnettle (henbit deadnettle, Lamium amplexicaule) were planted in pots containing Redi-Earth® planting medium (Scotts Company, 14111 Scottslawn Road, Marysville, Ohio 43041) comprising spaghnum peat moss, vermiculite, wetting agent and starter nutrients and treated with postemergence applications of test chemicals formulated in the same manner. Plants ranged in height from 2 to 18 cm (1- to 4-leaf stage) for postemergence treatments.
(§2) Treated plants and controls were maintained in a greenhouse for 13 to 15 days, after which time all species were compared to controls and visually evaluated. Plant response ratings, summarized in Table C, are based on a scale of 0 to 100 where 0 is no effect and 100 is complete control. A dash (-) response means no test result.

Waterhemp = experiment: Test C postemergence: waterhemp; format: in vivo, Amaranthus rudis
Source text: Seeds of plant species selected from blackgrass (Alopecurus myosuroides), bromegrass, downy (downy bromegrass, Bromus tectorum), foxtail, green (green foxtail, Setaria viridis), ryegrass, Italian (Italian ryegrass, Lolium multiflorum), winter wheat (Triticum aestivum), wild oat (Avena fatua), galium (catchweed bedstraw, Galium aparine), bermudagrass (Cynodon dactylon), surinam grass (Brachiaria decumbens), cocklebur (common cocklebur, Xanthium strumarium), corn (Zea mays), large crabgrass (Digitaria sanguinalis), woolly cupgrass (Eriochloa villosa), foxtail, giant (giant foxtail, Setaria faberii), goosegrass (Eleusine indica), johnsongrass (Sorghum halepense), kochia (Kochia scoparia), lambsquarters (Chenopodium album), morningglory (Ipomoea coccinea), nightshade (eastern black nightshade, Solanum ptycanthum), nutsedge, yellow (yellow nutsedge, Cyperus esculentus), pigweed (Amaranthus retroflexus), ragweed (common ragweed, Ambrosia elation), soybean (Glycine max), common (oilseed) sunflower (Helianthus annuus), Russian thistle (Salsola kali) and velvetleaf (Abutilon theophrasti) were planted into a blend of loam soil and sand and treated preemergence with test chemicals formulated in a non-phytotoxic solvent mixture which included a surfactant.
as §1, §2

kochia (Kochia scoparia) = experiment: Test F pre-/postemergence: kochia; format: in vivo; details: Preemergence
Source text: (§3) Seeds of plant species selected from corn (Zea mays), soybean (Glycine max), velvetleaf (Abutilon theophrasti), lambsquarters (Chenopodium album), poinsettia, wild (wild poinsettia, Euphorbia heterophylla), pigweed, palmer (palmer pigweed, Amaranthus palmeri), waterhemp (common waterhemp, Amaranthus rudis), surinam grass (Brachiaria decumbens), crabgrass, Brazil (Brazilian crabgrass, Digitaria horizontalis), panicum, fall (fall panicum Panicum dichotomiflorum), crabgrass, large (large crabgrass, Digitaria sanguinalis), foxtail, giant (giant foxtail, Setaria faberii), foxtail, green (green foxtail Setaria viridis), goosegrass (Eleusine indica), ragweed (common ragweed, Ambrosia elatior), barnyardgrass (Echinochloa crus-galli), sandbur (southern sandbur, Cenchrus echinatus), arrowleaf sida (Sida rhombifolia), ryegrass, Italian (Italian ryegrass, Lolium multiflorum), dayflower, VA (Virginia (VA) dayflower, Commelina virginica), field bindweed (Convolvulus arvensis), cocklebur (common cocklebur, Xanthium strumarium), morningglory (Ipomoea coccinea), nightshade (eastern black nightshade, Solanum ptycanthum), kochia (Kochia scoparia), nutsedge, yellow (yellow nutsedge, Cyperus esculentus), johnsongrass (Sorghum halepense), smartweed (ladysthumb smartweed, Polygonum persicaria), and beggarticks (hairy beggarticks, Bidens pilosa), were planted into a silt loam soil and treated preemergence with test chemicals formulated in a non-phytotoxic solvent mixture which included a surfactant. At the same time, plants selected from these crop and weed species and also pigweed (Amaranthus retroflexus), waterhemp_RES1 (ALS/Triazine resistant common waterhemp, Amaranthus rudis) and waterhemp_RES2 (ALS/HPPD resistant common waterhemp, Amaranthus rudis) were planted in pots containing a planting medium comprising spaghnum peat moss, vermiculite, wetting agent and starter nutrients treated with postemergence applications of some of the test chemicals formulated in the same manner. Plants ranged in height from 2 to 18 cm for postemergence treatments (1- to 4-leaf stage).
as §2, with “14” for “13”, “21” for “15”, “E,” for “C,”

[1] = test system: johnsongrass (Sorghum halepense); experiment: Test F pre-/postemergence: johnsongrass; format: in vivo; details: Preemergence
Source text: as §3
as §2, with “14” for “13”, “21” for “15”, “E,” for “C,”

soybean (Glycine max) = experiment: Test F pre-/postemergence: soybean; format: in vivo
Source text: as §3
as §2, with “14” for “13”, “21” for “15”, “E,” for “C,”

[2] = test system: waterhemp (common waterhemp, Amaranthus rudis); experiment: Test F pre-/postemergence: waterhemp; format: in vivo
Source text: as §3
as §2, with “14” for “13”, “21” for “15”, “E,” for “C,”

[3] = test system: goosegrass (Eleusine indica); experiment: Test F pre-/postemergence: goosegrass; format: in vivo; details: Preemergence
Source text: as §3
as §2, with “14” for “13”, “21” for “15”, “E,” for “C,”

[4] = 31 g ai/ha, scale 0 to 100 (0 no effect, 100 complete control)
[5] = 62 g ai/ha, scale 0 to 100 (0 no effect, 100 complete control)
[6] = 125 g ai/ha, scale 0 to 100, 0 no effect, 100 complete control
[7] = 4 g ai/ha, scale 0 to 100, 0 no effect, 100 complete control
[8] = 8 g ai/ha, scale 0 to 100, 0 no effect, 100 complete control
[9] = 16 g ai/ha, scale 0 to 100 (0 no effect, 100 complete control)
[10] = Postemergence, 4 g ai/ha, scale 0 to 100
[11] = Postemergence, 8 g ai/ha, scale 0 to 100
[12] = Postemergence, 16 g ai/ha, scale 0 to 100
[13] = Postemergence, 31 g ai/ha, scale 0 to 100
[14] = Postemergence, 62 g ai/ha, scale 0 to 100
[15] = Preemergence, 4 g ai/ha, scale 0 to 100, 0 no effect, 100 complete control
[16] = Preemergence, 8 g ai/ha, scale 0 to 100, 0 no effect, 100 complete control
[17] = Preemergence, 16 g ai/ha, scale 0 to 100 (0 no effect, 100 complete control)
[18] = Preemergence, 31 g ai/ha, scale 0 to 100 (0 no effect, 100 complete control)
[19] = Postemergence, 125 g ai/ha, scale 0 to 100
[20] = Preemergence, 125 g ai/ha, scale 0 to 100
[21] = Preemergence, 250 g ai/ha, scale 0 to 100

## CCc1nn(-c2ccc(F)cc2)nc1Oc1ccnc(C(F)(F)F)c1 [Compound 166]
Barnyardgrass; [4]
  Plant response rating, Barnyardgrass: 10
Barnyardgrass; [5]
  Plant response rating, Barnyardgrass: 25
Barnyardgrass; 250 g ai/ha, scale 0 to 100
  Plant response rating, Barnyardgrass: 60
Waterhemp; [6]
  Plant response rating, Waterhemp: 98

## Cc1nn(-c2ccc(C(F)(F)F)c(F)c2)nc1Cc1ccnc(C(F)(F)F)c1 [Compound 162]
Kochia (Kochia scoparia); [7]
  Plant response rating, Kochia: 30
Kochia (Kochia scoparia); [4]
  Plant response rating, Kochia: 70
Kochia (Kochia scoparia); 62 g ai/ha, scale 0 to 100
  Plant response rating, Kochia: 98
Barnyardgrass; [4]
  Plant response rating, Barnyardgrass: 20
Barnyardgrass; [5]
  Plant response rating, Barnyardgrass: 65
Barnyardgrass; 250 g ai/ha, scale 0 to 100
  Plant response rating, Barnyardgrass: 95
[1]; [7]
  Plant response rating, Johnsongrass: 20
[1]; [8]
  Plant response rating, Johnsongrass: 20
[1]; [9]
  Plant response rating, Johnsongrass: 20
[1]; [4]
  Plant response rating, Johnsongrass: 20
[1]; 62 g ai/ha, scale 0 to 100
  Plant response rating, Johnsongrass: 20
Waterhemp; [6]
  Plant response rating, Waterhemp: 100
Soybean (Glycine max); [10]
  Plant response rating, Soybean: 20
Soybean (Glycine max); [11]
  Plant response rating, Soybean: 30
Soybean (Glycine max); [12]
  Plant response rating, Soybean: 30
Soybean (Glycine max); [13]
  Plant response rating, Soybean: 45
Soybean (Glycine max); [14]
  Plant response rating, Soybean: 55
Soybean (Glycine max); [15]
  Plant response rating, Soybean: 0
Soybean (Glycine max); [16]
  Plant response rating, Soybean: 0
Soybean (Glycine max); [17]
  Plant response rating, Soybean: 0
Soybean (Glycine max); [18]
  Plant response rating, Soybean: 25
[2]; [10]
  Plant response rating, Waterhemp: 80
[2]; [11]
  Plant response rating, Waterhemp: 90
[2]; [12]
  Plant response rating, Waterhemp: 90
[2]; [13]
  Plant response rating, Waterhemp: 95
[2]; [14]
  Plant response rating, Waterhemp: 95
[2]; [15]
  Plant response rating, Waterhemp: 50
[2]; [16]
  Plant response rating, Waterhemp: 85
[2]; [17]
  Plant response rating, Waterhemp: 90
[2]; [18]
  Plant response rating, Waterhemp: 100
[3]; [7]
  Plant response rating, Goosegrass: 0
[3]; [8]
  Plant response rating, Goosegrass: 0
[3]; [9]
  Plant response rating, Goosegrass: 95
[3]; [4]
  Plant response rating, Goosegrass: 100
[3]; 62 g ai/ha, scale 0 to 100
  Plant response rating, Goosegrass: 100

## Cc1nn(-c2ccc(F)c(F)c2)nc1Oc1ccnc(C(F)(F)F)c1 [Compound 145]
Soybean (Glycine max); [11]
  Plant response rating, Soybean: 25
Soybean (Glycine max); [12]
  Plant response rating, Soybean: 35
Soybean (Glycine max); [13]
  Plant response rating, Soybean: 40
Soybean (Glycine max); [14]
  Plant response rating, Soybean: 50
Soybean (Glycine max); [19]
  Plant response rating, Soybean: 60
[2]; [11]
  Plant response rating, Waterhemp: 90
[2]; [12]
  Plant response rating, Waterhemp: 90
[2]; [13]
  Plant response rating, Waterhemp: 95
[2]; [14]
  Plant response rating, Waterhemp: 95
[2]; [19]
  Plant response rating, Waterhemp: 95

## CCCc1nn(-c2ccc(F)cc2)nc1Cc1ccnc(C(F)(F)F)c1 [Compound 153]
Kochia (Kochia scoparia); [9]
  Plant response rating, Kochia: 25
Kochia (Kochia scoparia); [4]
  Plant response rating, Kochia: 75
Kochia (Kochia scoparia); 62 g ai/ha, scale 0 to 100
  Plant response rating, Kochia: 95
Kochia (Kochia scoparia); 125 g ai/ha, scale 0 to 100
  Plant response rating, Kochia: 100
Kochia (Kochia scoparia); 250 g ai/ha, scale 0 to 100
  Plant response rating, Kochia: 100
Barnyardgrass; [4]
  Plant response rating, Barnyardgrass: 20
Barnyardgrass; [5]
  Plant response rating, Barnyardgrass: 35
Barnyardgrass; 250 g ai/ha, scale 0 to 100
  Plant response rating, Barnyardgrass: 75
[1]; [9]
  Plant response rating, Johnsongrass: 0
[1]; [4]
  Plant response rating, Johnsongrass: 10
[1]; 62 g ai/ha, scale 0 to 100
  Plant response rating, Johnsongrass: 50
[1]; 125 g ai/ha, scale 0 to 100
  Plant response rating, Johnsongrass: 100
[1]; 250 g ai/ha, scale 0 to 100
  Plant response rating, Johnsongrass: 100
Waterhemp; [6]
  Plant response rating, Waterhemp: 98
Soybean (Glycine max); [17]
  Plant response rating, Soybean: 0
Soybean (Glycine max); [18]
  Plant response rating, Soybean: 0
Soybean (Glycine max); [20]
  Plant response rating, Soybean: 5
Soybean (Glycine max); [21]
  Plant response rating, Soybean: 25
[2]; [17]
  Plant response rating, Waterhemp: 65
[2]; [18]
  Plant response rating, Waterhemp: 100
[2]; [20]
  Plant response rating, Waterhemp: 100
[2]; [21]
  Plant response rating, Waterhemp: 100
[3]; [9]
  Plant response rating, Goosegrass: 80
[3]; [4]
  Plant response rating, Goosegrass: 95
[3]; 62 g ai/ha, scale 0 to 100
  Plant response rating, Goosegrass: 98
[3]; 125 g ai/ha, scale 0 to 100
  Plant response rating, Goosegrass: 100
[3]; 250 g ai/ha, scale 0 to 100
  Plant response rating, Goosegrass: 100

## CCCc1nn(-c2ccc(C(F)(F)F)c(F)c2)nc1Oc1ccnc(C(F)(F)F)c1 [Compound 185]
Barnyardgrass; [4]
  Plant response rating, Barnyardgrass: 30
Barnyardgrass; [5]
  Plant response rating, Barnyardgrass: 35
Barnyardgrass; 250 g ai/ha, scale 0 to 100
  Plant response rating, Barnyardgrass: 80
Waterhemp; [6]
  Plant response rating, Waterhemp: 95
Waterhemp; 250 g ai/ha, scale 0 to 100 (0 no effect, 100 complete control)
  Plant response rating, Waterhemp: 100

## Fc1ccc(-n2nc(Cc3ccnc(C(F)(F)F)c3)c(OCC(F)(F)F)n2)cc1 [Compound 142]
Kochia (Kochia scoparia); [9]
  Plant response rating, Kochia: 20
Kochia (Kochia scoparia); [4]
  Plant response rating, Kochia: 80
Kochia (Kochia scoparia); 62 g ai/ha, scale 0 to 100
  Plant response rating, Kochia: 85
Kochia (Kochia scoparia); 125 g ai/ha, scale 0 to 100
  Plant response rating, Kochia: 95
[1]; [9]
  Plant response rating, Johnsongrass: 0
[1]; [4]
  Plant response rating, Johnsongrass: 5
[1]; 125 g ai/ha, scale 0 to 100
  Plant response rating, Johnsongrass: 30
Soybean (Glycine max); [17]
  Plant response rating, Soybean: 0
Soybean (Glycine max); [18]
  Plant response rating, Soybean: 0
Soybean (Glycine max); [20]
  Plant response rating, Soybean: 25
[2]; [17]
  Plant response rating, Waterhemp: 98
[2]; [18]
  Plant response rating, Waterhemp: 98
[2]; [20]
  Plant response rating, Waterhemp: 100
[3]; [9]
  Plant response rating, Goosegrass: 40
[3]; [4]
  Plant response rating, Goosegrass: 70
[3]; 62 g ai/ha, scale 0 to 100
  Plant response rating, Goosegrass: 100
[3]; 125 g ai/ha, scale 0 to 100
  Plant response rating, Goosegrass: 100
